Results reported in patent US20250049841A1 (priority 2021, published 2025).
Values after ≈ are worked out from the molar mass of the structure shown. Values joined by “and” are separate entries in the source; they are usually repeats but may differ in a detail not shown here. Equal entries are not always repeated. Where two headings read alike, the source gives them in different places.

What was measured:
[1] = tested on: SARS-CoV-2 (strain USA-WA1/2020); experiment: microbe, parasite or virus in culture; type: cell-based, human; conditions: Severe acute respiratory syndrome coronavirus 2, 120 h
[2] = tested on: SARS-CoV-2 USA_WA1/2020 strain
[3] = tested on: SARS-CoV-2 USA_WA1/2020 strain; remark: listed apart in the source
[4] = tested on: normal, human-derived tracheal/bronchial epithelial (TBE) cells
Protocol: (§1) The amount of formazan is directly proportional to the number of living cells and the resulting colored solution is quantified by measuring absorbance at 450 nanometers using a multi-well spectrophotometer. Drug concentrations of 2 mg/ml and 1 mg/ml were tested in duplicate wells, and a drug concentration of 0.5 mg/ml was tested in singlet wells. On day 3 (H1N1) or day 6 (RSV), the apical side was washed one time with 400 μL pre-warmed PBS. The CCK-8 solution was added (200 L) to the apical side and incubated at 37° C. for 2 hours. The formazan (100 l) was placed into a 96-well plate and the 450 nm absorbance was recorded. Percent toxicity values were calculated as a percentage of the cell control test wells (no drug treatment) and reported as the 50% cell cytotoxic concentration (CC50) of compound (no virus). Tissues were also observed via microscopy to assess cytotoxicity.

[5] = tested on: normal, human-derived tracheal/bronchial epithelial (TBE) cells; remark: listed apart in the source
Protocol: (§2) Cell Culture: The EpiAirway™ Model consists of normal, human-derived tracheal/bronchial epithelial (TBE) cells which have been cultured to form a multi layered, highly differentiated model which closely resembles the epithelial tissue of the respiratory tract.
(§3) The TBE cells were grown on 6 mm mesh disks in transwell inserts. […] The cells have unique properties in forming layers, the apical side of which is exposed only to air and that creates a mucin layer. Upon arrival, the cell transwell inserts were immediately transferred to individual wells of a 6-well plate according to manufacturer's instructions, and 1 mL of MatTek's proprietary culture medium (AIR-100-MM) was added to the basolateral side, whereas the apical side was exposed to a humidified 5% CO2 environment. The TBE cells were cultured at 37° C. for one day before the start of the experiment. After the 24 h equilibration period, the mucin layer, secreted from the apical side of the cells, was removed by washing with 400 μL pre-warmed 30 mM HEPES buffered saline solution 3X. Culture medium was replenished following the wash steps.
(§4) Experimental design: Each 2× compound treatment (120 L) and virus (120 μL) was applied to the apical side, and 1× compound treatment only was applied to the basal side (1 mL), for a 2 h incubation. […]

[6] = tested on: SARS-CoV-2 USA_WA1/2020 strain; conditions: hamster, in vivo
[7] = tested on: normal, human-derived tracheal/bronchial epithelial (TBE) cells; experiment: Toxicity of test compounds in the TBE tissue model (Example 1); conditions: any of the test compound concentrations
Protocol: as §2, §3, §4

[8] = tested on: Influenza A/California/7/2009 (H1N1); experiment: microbe, parasite or virus in culture; conditions: H1N1, in Homo sapiens, read-out: EC90 (VYR 90% effective concentration)
[9] = tested on: Influenza A/California/7/2009 (H1N1); conditions: fresh drug on days 1 and 2; for Log10 CCID50 virus per 0.2 mL: H1N1, day 3
in vitro = conditions: human
Protocol: as §1

[10] = tested on: Respiratory syncytial virus (RSV-A2); conditions: for SI = CC50/EC90: RSV-A2
[11] = tested on: Respiratory syncytial virus (RSV-A2); experiment: microbe, parasite or virus in culture; conditions: human respiratory syncytial virus, read-out: EC90 (VYR 90% effective concentration)
[12] = 500 mg/kg/d b.i.d. PO, individual animals
[13] = 200 mg/kg/d b.i.d. PO, individual animals

`CCC(CC)COC(=O)[C@H](C)N[P@](=O)(OC[C@H]1O[C@@](C#N)(c2ccc3c(N)ncnn23)[C@H](O)[C@@H]1O)Oc1ccccc1` [Remdesivir] gave an EC90 ([1]; read-out: EC90 (Titer 1)) of 0.0065 µg/mL (≈ 0.0108 µM) and an EC90 ([1]; read-out: EC90 (Titer Avg.)) of 0.0065 µg/mL (≈ 0.0108 µM).

In the case of `CC(C)C(=O)OC[C@H]1O[C@@H](n2ccc(NO)nc2=O)[C@H](O)[C@@H]1O` [EIDD-2801], the “reduction in lung virus titers, day 3 post-infection” value ([2]; 500 mg/kg/d PO) is reported as “one”, the “effect on nasal tissue virus titers” value ([2]; 500 mg/kg/d PO, FIG. 21, once daily comparison) is reported as “did not significantly reduce” and the “effect on lung weights” value ([2]; 500 mg/kg/d PO, FIG. 22) is reported as “did not significantly reduce”. The “effect on nasal tissue virus titers, day 3 post-infection” value ([2]; 500 mg/kg/d PO, FIG. 25, twice daily comparison, P<0.01) was “significantly reduced”, the “effect on lung weights, Day 6” value ([2]; 500 mg/kg/d PO, FIG. 26) was “significantly affected” and the “effect on lung virus titers, day 3 post-infection” value ([2]; 500 mg/kg/d PO, P<0.01 vs placebo) was “significantly reduced”. The “Virus Titer, Lung tissue, Day 6” value [2, 12] was <0.7 CCID50/mL (Log10), the “Virus Titer, Nasal tissue, Day 6” value [2, 12] was <0.7 CCID50/mL (Log10) (4×) and 1.7 CCID50/mL (Log10) and the “effect on lung weights” value ([3]; 200 mg/kg/d PO) was “not significantly affected”. For the same compound, the “effect on weight loss (percent initial body weight)” value ([3]; 200 mg/kg/d PO, P<0.01 vs placebo) was “prevented weight loss”, the “effect on oropharyngeal swab virus titers” value ([3]; 200 mg/kg/d PO, any day post-infection) was “did not reduce” and the “effect on lung virus titers” value ([3]; 200 mg/kg/d PO, day 6 post-infection, P<0.0001 vs placebo) was “reduced lung virus titers”. The “effect on nasal tissue virus titers” value ([3]; 200 mg/kg/d PO, vs placebo) was “did not significantly reduce”, the “Oropharyngeal swab Virus Titer, Day Post-Infection 5” value [3, 13] was 2.0 CCID50/mL (Log10) and <0.7 CCID50/mL (Log10) (3×) and 1.7 CCID50/mL (Log10) and the “Oropharyngeal swab Virus Titer, Day Post-Infection 6” value [3, 13] was <0.7 CCID50/mL (Log10). For the same compound, the “Virus Titer, Lung tissue, Day 6” value [3, 13] was <0.7 CCID50/mL (Log10).

With berdazimer sodium the deaths ([2]; hamster, in vivo) was “two of the ten animals”, the “cytotoxicity, tissues observed under the microscope” value [4] was “no overt cytotoxicity” and the toxicity [5] was “No toxicity was observed”. For the same compound, the premature deaths [6] was “no premature deaths were observed” and the adverse events ([3]; hamster, in vivo, 2 mg/kg/day) was “No adverse events were observed”.

For `CO[Si](CCCN(C)[N+]([O-])=NO)(OC)OC` [MAP3-NONOate, N, N-methylaminopropyl diazeniumdiolate trimethoxysilane], the toxicity [7] was “No toxicity was observed”.

For `NC(=O)c1ncn([C@@H]2O[C@H](CO)[C@@H](O)[C@H]2O)n1` [Ribavirin], the EC90 [8] was 1.89 µg/mL (≈ 7.74 µM), the “Log10 CCID50 virus per 0.2 mL” value ([9]; concentration 1 μg/ml) was 6.50 Log10 CCID50 virus per 0.2 mL and the “Log10 CCID50 virus per 0.2 mL” value ([9]; concentration 10 μg/ml) was 4.00 Log10 CCID50 virus per 0.2 mL. The “Log10 CCID50 virus per 0.2 mL” value ([9]; concentration 100 μg/ml) was 2.67 Log10 CCID50 virus per 0.2 mL, the “SI = CC50/EC90” value ([9]; H1N1) was over 52.9 and the CC50 (in vitro) was over 100 µg/mL. For the same compound, the CC50 at 6 days (in vitro) was over 100 µg/mL, the “EC90 (VYR 90% effective concentration)” value [10] was 4.6 µg/mL (≈ 18.8 µM) and the “SI = CC50/EC90” value ([10]; fresh drug on days 1, 2, and 5) was over 19.54. For the same compound, the “SI = CC50/EC90” value ([10]; fresh drug on days 1-5) was over 21.7 and the EC90 [11] was 5.12 µg/mL (≈ 21 µM).
